Assay results reported in patent US12291508B2, “Hydrazide containing nuclear transport modulators and uses thereof” (Karyopharm Therapeutics Inc., priority 2011, dated 2025).
Counter-ions that a name gives are not always drawn.

Key:
[1] = test system: ZR7530; assay: Cell proliferation assay, ZR7530; assay type: cell-based; settings: Homo sapiens, ZR-75-30; ZR7530, type Lu/HER+, 72 h
Experimental: (§1) The cells were seeded at 5×10^3 to 1.5×10^4 cells (depending on cell type) in each well of a 96-well plate in 100 μL of fresh culture medium and adherent cells were allowed to attach overnight. The stock solutions of the compounds were diluted in cell culture medium to obtain eight concentrations of each drug, ranging from 1 nM to 30 μM and DMSO at less than 1% v/v was used as a negative control. The resulting drug solutions were transferred onto the cells. After 72 h of treatment, 20 μl of CellTiter 96® AQueous reagent was added into each well of the 96-well assay plates and the plate was incubated at 37° C. for 1-4 hours in a humidified, 5% CO2 atmosphere. Then the absorbance of each well was recorded at 490 nm using a 96-well plate reader. In most cases, the assay was performed in triplicate and the results were presented as half maximal inhibitory concentration (IC50).

[2] = test system: MDA-MB-468 TNBC cells; assay: Apoptosis marker immunoblot, MDA-MB-468; assay type: cell-based; settings: MDA-MB-468, 0 to 10 μM, 24 hours
Experimental: MDA-MB-468 TNBC, DU4475 and HS578T TNBC cells were exposed to concentrations of Compound 1-3 ranging from 0 to 10 μM for 24 hours. After 24 hours, whole protein cell extracts were run on immunoblots and were exposed to antibodies against the proteins indicated in FIGS. 2A-2C.

[3] = test system: MM.1S multiple myeloma cell line; assay: CellTiter 96 AQueous One Solution cell proliferation assay, MM.1S; assay type: cell-based; settings: Homo sapiens, MM1.S, 72 h of treatment, read-out: Cytotoxicity Assay
From the text: The CellTiter 96® AQueous One Solution cell proliferation assay (Promega) was used on MM.1S multiple myeloma cell line to study the cytotoxic and cytostatic properties of the compounds. The assay is based on the cleavage of the tetrazolium salt, MTS, in the presence of an electron-coupling reagent PES (phenazine ethosulfate). The MTS tetrazolium compound is bioreduced by cells into a colored formazan product that is soluble in tissue culture medium. This conversion is presumably accomplished by NADPH or NADH produced by dehydrogenase enzymes in metabolically active cells. Assays are performed by adding a small amount of the CellTiter 96® AQueous One solution reagent directly to culture wells, incubating for 1-4 hours and then recording the absorbance at 490 nm with a 96-well plate reader.
as §1, with “cells” for “cells (depending on cell type)”, “(IC50). Optical density versus compound concentration was plotted and analyzed using non-linear regression equations (IDBS XLfit) and the IC50 for each compound was calculated.” for “(IC50).”

[4] = test system: MDA-MB-468 cells; assay: Long-term growth assay, MDA-MB-468; assay type: cell-based; settings: MDA-MB-468, 1 μM, 10 days, crystal violet
From the text: At the end of the assay, media was removed from the cells and the remaining cells were stained with crystal violet.

[5] = test system: HCC-1569; assay: Cell proliferation assay, HCC-1569; assay type: cell-based; settings: Homo sapiens, HCC1569; HCC-1569, type BaA, 72 h
Experimental: as §1

[6] = test system: BT-549; assay: Cell proliferation assay, BT-549; assay type: cell-based; settings: Homo sapiens; BT-549, type BaB, 72 h
Experimental: as §1

[7] = test system: BT-20 TNBC Basal B cells; assay: Nuclear localization of FOXO3a and IκB, BT-20; assay type: cell-based; settings: BT-20, 1 μM, 24 hours
Experimental: MDA-MB-468 TNBC Basal A and BT-20 TNBC Basal B cells were exposed to DMSO or 1 μM Compound 1-3 for 24 hours and then stained for FOXO3a or IκB with or without DAPI nuclear stain. The stained cells were examined for nuclear localization.

[8] = test system: MDA-MB-468 cells; assay: Anti-apoptosis and cell cycle proteins immunoblot, MDA-MB-468; assay type: cell-based; settings: MDA-MB-468, increasing concentrations, 24 hours
[9] = test system: obese (fa/fa) Zucker rats; assay type: in vivo
Experimental: Male Zucker (fa/fa) rats and male Zucker lean rats (both from Charles River) at 10 weeks of age—a timepoint at which the Zucker fa/fa rats should show elevated food intake, body mass and elevated plasma lipid profile relative to their “lean” counterparts were singly housed in plastic bottomed cages and were given 14 days of habituation. During this period, animal body weight, food and water intakes were recorded daily. All animals were given ad-lib access to standard lab chow and water throughout the study. Once the 14 day baseline intake data were collected, the Zucker obese rats were assigned into treatment groups based on equivalent baseline data, i.e. all Zucker obese rats had equivalent daily food/water intakes and body weights. During this phase the rats also received two vehicle administrations as familiarisation to the dosing procedure. Immediately after the baseline phase, the treatment phase commenced. Test article and vehicle were administered at approximately 1 h prior to onset of the dark cycle. Dose scheduling varied according to group: 5× weekly dosing was Monday-Friday The study design was the following: Group A=Zucker lean male rats, vehicle treatment 5× week, oral, n=6, Group B=Zucker obese male rats, vehicle treatment 5× week, oral, n=6, Group C=Zucker obese male rats, I-4 2.5 mg/kg 5× week, oral, n=6.
Daily body weight, food and water intake were measured at approximately the same time of the day. At day −1 and day 7 of treatment phase.

Structure (SMILES)	IC50 [1] [nM]	apoptosis (PARP, caspase 3, cleaved PARP, cleaved caspase 3) [2]	IC50 [3] [nM]	long-term growth [4]	IC50 [5] [nM]	IC50 [6] [nM]	localization of FOXO3a and IκB [7]	MCL-1 protein level [8]	mean and cumulative food intake ([9]; 2.5 mg/kg 5× weekly, oral, obese (fa/fa) Zucker rats)	body weight gain ([9]; 2.5 mg/kg 5× weekly, oral, compared to Zucker fa/fa controls)	body weight gain after washout ([9]; 2 day washout phase, compared to Zucker fa/fa controls)
O=C(/C=C\n1cnc(-c2cc(C(F)(F)F)cc(C(F)(F)F)c2)n1)NNc1cnccn1 [Compound I-3, (Z)-3-(3-(3,5-bis(trifluoromethyl)phenyl)-1H-1,2,4-triazol-1-yl)-N′-(pyrazin-2-yl)acrylohydrazide]	19000	induces apoptosis	≤ 1000	inhibited the long-term growth	960	20	both FOXO3a and IκB were localized in the cell nucleus	a reduction in MCL-1 is observed	–	–	–
O=C(/C=C\n1cnc(-c2cc(C(F)(F)F)cc(C(F)(F)F)c2)n1)NNc1ccccn1 [Compound I-4, (Z)-3-(3-(3,5-bis(trifluoromethyl)phenyl)-1H-1,2,4-triazol-1-yl)-N′-(pyridin-2-yl)acrylohydrazide hydrochloride]	–	–	≤ 1000	–	–	–	–	–	reduced mean and cumulative food intake	significantly reduced weight gain	body weight gain still reduced
